Measurements published in patent US4920016A, “Liposomes with enhanced circulation time” (Linear Technology, Inc., priority 1987, dated 1990).

Assay: Uptake of doxorubicin into J6456 mouse tumors
Conditions: in vivo, J6456 mice, IV, fluorometric (Table 14), read-out: Percent of Injected Dose (DXR)/q Tumor (SD)
Experimental: Sized MLVs having one of the three lipid compositions shown in Table 14 below were prepared as above. Doxorubicin was included in the hydration buffer, at a concentration of about 5 mg/ml, and free drug was removed from the sized liposomes by gel filtration.
Mice innoculated with J6456 lymphoma cells were injected IV with the MLVs (1 umole phospholipid/animal) or with an equivalent amount of free doxorubicin. Tissue distribution of the drug, 24 hours post administration, was determined fluorometrically, with the results shown in Tables 13 below.

COc1cccc2c1C(=O)c1c(O)c3c(c(O)c1C2=O)C[C@@](O)(C(=O)CO)C[C@@H]3O[C@H]1C[C@H](N)[C@H](O)[C@H](C)O1 [FREE DXR, doxorubicin]
tissue uptake at 24 h: 0.4 %ID/g
